Measurements taken from patent US8450270B2 (Indiana University Research and Technology Corporation, priority 2008, dated 2013).
Square brackets hold non-standard residues; d marks the D form. Peptide text beside a SMILES is read from it. Dab = NCC[C@H](N)C(=O)O; Aib = CC(C)(N)C(=O)O

Molecular target: Glucagon Receptor (Homo sapiens, UniProt P47871)
Test: Functional assay-cAMP synthesis (luciferase reporter, HEK293), glucagon receptor
Details: for % activity*: glucagon receptor
Excerpt: The luminescent light output indicates activation of the luciferase reporter gene, which in turn is a measure of the activation of the receptor.

Chain of Glucagon Receptor (P47871 26-477): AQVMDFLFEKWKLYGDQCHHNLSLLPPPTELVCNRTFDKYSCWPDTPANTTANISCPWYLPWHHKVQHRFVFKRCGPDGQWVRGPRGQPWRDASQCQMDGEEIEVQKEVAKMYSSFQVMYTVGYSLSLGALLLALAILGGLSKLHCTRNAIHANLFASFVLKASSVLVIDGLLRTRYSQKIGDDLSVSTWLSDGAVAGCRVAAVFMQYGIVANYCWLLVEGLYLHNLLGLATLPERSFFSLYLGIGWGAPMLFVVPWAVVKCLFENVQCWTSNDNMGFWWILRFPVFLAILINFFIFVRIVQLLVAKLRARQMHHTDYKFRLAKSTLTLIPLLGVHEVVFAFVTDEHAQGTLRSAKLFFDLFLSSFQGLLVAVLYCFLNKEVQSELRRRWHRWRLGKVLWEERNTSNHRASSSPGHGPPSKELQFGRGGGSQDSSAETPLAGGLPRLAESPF

With CCCC[C@H](NC(=O)[C@H](CC(C)C)NC(=O)[C@H](Cc1c[nH]c2ccccc12)NC(=O)[C@H](C)NC(=O)[C@@H](NC(=O)[C@H](Cc1ccccc1)NC(=O)[C@H](CCC(=O)O)NC(=O)[C@H](C)NC(=O)[C@H](C)NC(=O)[C@H](CCCNC(=N)N)NC(=O)[C@H](CCCNC(=N)N)NC(=O)[C@@H](NC(=O)[C@H](CC(=O)O)NC(=O)[C@H](CC(C)C)NC(=O)[C@H](Cc1ccc(O)cc1)NC(=O)[C@H](CCCCN)NC(=O)[C@H](CO)NC(=O)[C@H](Cc1ccc(O)cc1)NC(=O)[C@H](CC(=O)O)NC(=O)[C@H](CO)NC(=O)[C@@H](NC(=O)[C@H](Cc1ccccc1)NC(=O)[C@@H](NC(=O)CNC(=O)[C@H](CCC(=O)NC)NC(=O)[C@H](CO)NC(=O)[C@@H](N)Cc1c[nH]cn1)[C@@H](C)O)[C@@H](C)O)[C@@H](C)O)C(C)C)C(=O)N[C@@H](CC(=O)O)C(=O)N[C@@H](CCC(=O)O)C(=O)O [SEQ ID NO: 65] the EC50 (EC50 at Glucagon Receptor (nM), Table 7) was 0.48 nM and the “% activity*” value (Table 7) was 13%.

With CCCC[C@H](NC(=O)[C@H](CC(C)C)NC(=O)[C@H](Cc1c[nH]c2ccccc12)NC(=O)[C@H](C)NC(=O)[C@@H](NC(=O)[C@H](Cc1ccccc1)NC(=O)[C@H](CCC(=O)O)NC(=O)[C@H](C)NC(=O)[C@H](C)NC(=O)[C@H](CCCNC(=N)N)NC(=O)[C@H](CCCNC(=N)N)NC(=O)[C@@H](NC(=O)[C@H](CC(=O)O)NC(=O)[C@H](CC(C)C)NC(=O)[C@H](Cc1ccc(O)cc1)NC(=O)[C@H](CCCCN)NC(=O)[C@H](CO)NC(=O)[C@H](Cc1ccc(O)cc1)NC(=O)[C@H](CC(=O)O)NC(=O)[C@H](CO)NC(=O)[C@@H](NC(=O)[C@H](Cc1ccccc1)NC(=O)[C@@H](NC(=O)CNC(=O)[C@H](CC[S+](C)[O-])NC(=O)[C@H](CO)NC(=O)[C@@H](N)Cc1c[nH]cn1)[C@@H](C)O)[C@@H](C)O)[C@@H](C)O)C(C)C)C(=O)N[C@@H](CC(=O)O)C(=O)N[C@@H](CCC(=O)O)C(=O)O (some centres unmarked) [SEQ ID NO: 66] the “% activity*” value (Table 7) was 7%.

For CCCC[C@H](NC(=O)[C@H](CC(C)C)NC(=O)[C@H](Cc1c[nH]c2ccccc12)NC(=O)[C@H](C)NC(=O)[C@@H](NC(=O)[C@H](Cc1ccccc1)NC(=O)[C@H](CCC(=O)O)NC(=O)[C@H](C)NC(=O)[C@H](C)NC(=O)[C@H](CCCNC(=N)N)NC(=O)[C@H](CCCNC(=N)N)NC(=O)[C@@H](NC(=O)[C@H](CC(=O)O)NC(=O)[C@H](CC(C)C)NC(=O)[C@H](Cc1ccc(O)cc1)NC(=O)[C@H](CCCCN)NC(=O)[C@H](CO)NC(=O)[C@H](Cc1ccc(O)cc1)NC(=O)[C@H](CC(=O)O)NC(=O)[C@H](CO)NC(=O)[C@@H](NC(=O)[C@H](Cc1ccccc1)NC(=O)[C@@H](NC(=O)CNC(=O)[C@H](CCCNC(C)=O)NC(=O)[C@H](CO)NC(=O)[C@@H](N)Cc1c[nH]cn1)[C@@H](C)O)[C@@H](C)O)[C@@H](C)O)C(C)C)C(=O)N[C@@H](CC(=O)O)C(=O)N[C@@H](CCC(=O)O)C(=O)O [SEQ ID NO: 67], the “% activity*” value (Table 7) was 7%.

For CSCC[C@H](NC(=O)[C@H](CC(C)C)NC(=O)[C@H](Cc1c[nH]c2ccccc12)NC(=O)[C@H](C)NC(=O)[C@@H](NC(=O)[C@H](Cc1ccccc1)NC(=O)[C@H](CC(=O)O)NC(=O)[C@H](C)NC(=O)[C@H](C)NC(=O)[C@H](CCCNC(=N)N)NC(=O)[C@H](CCCNC(=N)N)NC(=O)C(C)(C)NC(=O)[C@H](CC(=O)O)NC(=O)[C@H](CC(C)C)NC(=O)[C@H](Cc1ccc(O)cc1)NC(=O)[C@H](CCCCN)NC(=O)[C@H](CO)NC(=O)[C@H](Cc1ccc(O)cc1)NC(=O)[C@H](CC(=O)O)NC(=O)[C@H](CO)NC(=O)[C@@H](NC(=O)[C@H](Cc1ccccc1)NC(=O)[C@@H](NC(=O)CNC(=O)[C@H](CCC(N)=O)NC(=O)[C@H](CO)NC(=O)[C@@H](N)Cc1c[nH]cn1)[C@@H](C)O)[C@@H](C)O)C(C)C)C(=O)N[C@@H](CC(=O)O)C(=O)N[C@@H](CCC(=O)O)C(=O)O [SEQ ID NO: 68], the “% activity*” value (Table 7) was 15%.

CSCC[C@H](NC(=O)[C@H](CC(C)C)NC(=O)[C@H](Cc1c[nH]c2ccccc12)NC(=O)[C@H](C)NC(=O)[C@@H](NC(=O)[C@H](Cc1ccccc1)NC(=O)[C@H](CC(=O)O)NC(=O)[C@H](C)NC(=O)[C@H](C)NC(=O)[C@H](CCCNC(=N)N)NC(=O)[C@H](CCCNC(=N)N)NC(=O)C(C)(C)NC(=O)[C@H](CC(=O)O)NC(=O)[C@H](CC(C)C)NC(=O)[C@H](Cc1ccc(O)cc1)NC(=O)[C@H](CCCCN)NC(=O)[C@H](CO)NC(=O)[C@H](Cc1ccc(O)cc1)NC(=O)[C@H](CC(=O)O)NC(=O)[C@H](CO)NC(=O)[C@@H](NC(=O)[C@H](Cc1ccccc1)NC(=O)[C@@H](NC(=O)CNC(=O)[C@H](CCNC(C)=O)NC(=O)[C@H](CO)NC(=O)[C@@H](N)Cc1c[nH]cn1)[C@@H](C)O)[C@@H](C)O)C(C)C)C(=O)N[C@@H](CC(=O)O)C(=O)N[C@@H](CCC(=O)O)C(=O)O [SEQ ID NO: 69] was tested, and the “% activity*” value (Table 7) was 86%.

In the case of CNC(=O)CC[C@H](NC(=O)[C@H](CO)NC(=O)[C@@H](N)Cc1c[nH]cn1)C(=O)NCC(=O)N[C@H](C(=O)N[C@@H](Cc1ccccc1)C(=O)N[C@H](C(=O)N[C@@H](CO)C(=O)N[C@@H](CC(=O)O)C(=O)N[C@@H](Cc1ccc(O)cc1)C(=O)N[C@@H](CO)C(=O)N[C@@H](CCCCN)C(=O)N[C@@H](Cc1ccc(O)cc1)C(=O)N[C@@H](CC(C)C)C(=O)N[C@@H](CC(=O)O)C(=O)NC(C)(C)C(=O)N[C@@H](CCCNC(=N)N)C(=O)N[C@@H](CCCNC(=N)N)C(=O)N[C@@H](C)C(=O)N[C@@H](C)C(=O)N[C@@H](CC(=O)O)C(=O)N[C@@H](Cc1ccccc1)C(=O)N[C@H](C(=O)N[C@@H](C)C(=O)N[C@@H](Cc1c[nH]c2ccccc12)C(=O)N[C@@H](CC(C)C)C(=O)N[C@@H](CCSC)C(=O)N[C@@H](CC(=O)O)C(=O)N[C@@H](CCC(=O)O)C(=O)O)C(C)C)[C@@H](C)O)[C@@H](C)O [SEQ ID NO: 70], the “% activity*” value (Table 7) is reported as 55%.

CC(=O)NCC[C@H](NC(=O)[C@H](CO)NC(=O)[C@@H](N)Cc1c[nH]cn1)C(=O)NCC(=O)N[C@H](C(=O)N[C@@H](Cc1ccccc1)C(=O)N[C@H](C(=O)N[C@@H](CO)C(=O)N[C@@H](CC(=O)O)C(=O)N[C@@H](Cc1ccc(O)cc1)C(=O)N[C@@H](CO)C(=O)N[C@@H](CCCCN)C(=O)N[C@@H](Cc1ccc(O)cc1)C(=O)N[C@@H](CC(C)C)C(=O)N[C@@H](CC(=O)O)C(=O)NC(C)(C)C(=O)N[C@@H](CCCNC(=N)N)C(=O)N[C@@H](CCCNC(=N)N)C(=O)N[C@@H](C)C(=O)N[C@@H](C)C(=O)N[C@@H](CC(=O)O)C(=O)N[C@@H](Cc1ccccc1)C(=O)N[C@H](C(=O)N[C@@H](C)C(=O)N[C@@H](Cc1c[nH]c2ccccc12)C(=O)N[C@@H](CC(C)C)C(=O)N[C@@H](CC(C)C)C(=O)N[C@@H](CC(=O)O)C(=O)N[C@H](C(=O)NCC(=O)N1CCC[C@H]1C(=O)N[C@@H](CO)C(=O)N[C@@H](CO)C(=O)NCC(=O)N[C@@H](C)C(=O)N1CCC[C@H]1C(=O)N1CCC[C@H]1C(=O)N1CCC[C@H]1C(=O)N[C@@H](CO)C(N)=O)[C@@H](C)O)C(C)C)[C@@H](C)O)[C@@H](C)O [SEQ ID NO: 72] (H-HS[Dab](Ac)GTFTSDYSKYLD[Aib]RRAADFVAWLLDTGPSSGAPPPS-NH2; N-terminus assumed) was tested, and the “% activity*” value (Table 8, wildtype glucagon = 100) was 113%.
